The values that follow come from ChEMBL document CHEMBL5126521, “Analgesic Opioid Ligand Discovery Based on Nonmorphinan Scaffolds Derived from Natural Sources” (J Med Chem, 2022).

Data set [1] addresses T1, Mu-type opioid receptor (Homo sapiens, UniProt P35372). Nature of the data set: Displacement of [3H]DAMGO from MOP (unknown origin) stably expressed in CHO cell membrane incubated for 90 mins by scintillation counter analysis. It counts as cell membranes. (Displacement assays read how much labelled ligand stays bound in the presence of the test substance.)
Data set [2] addresses T2, Kappa-type opioid receptor (Homo sapiens, UniProt P41145). Nature of the data set: Displacement of [3H]diprenorphine from KOP (unknown origin) stably expressed in CHO cell membrane incubated for 90 mins by scintillation counter analysis. Format: cell membranes.
Data set [3] has as its target T3, Delta-type opioid receptor (Homo sapiens, UniProt P41143). Nature of the data set: Displacement of [3H]DPDPE from DOP (unknown origin) stably expressed in CHO cell membrane incubated for 90 mins by scintillation counter analysis. Format: cell membranes.
For data set [4], the system named is Mus musculus. Nature of the data set: Antinociceptive activity in icv dosed C57BL/6J mouse assessed as tail withdrawal latency from warm water. Format: functional.
Data set [5] concerns the target Mu-type opioid receptor (Cavia porcellus, UniProt P97266). The data set is described as follows: Antagonist activity at guinea pig ileum MOP. Format: functional, tissue-based.
Data set [6] has as its system Rattus norvegicus. Nature of the data set: Antinociceptive activity in rat administered icv by tail pressure test relative to control. Format: functional. Set-up: concentration or dose not given beside the values.
Data set [7] addresses Mu-type opioid receptor (Mus musculus, UniProt P42866). Nature of the data set: Antagonist activity at mouse vas deferns MOP. It counts as functional.
Data set [8] addresses T1, Mu-type opioid receptor. The data set is described as follows: Binding affinity to MOP (unknown origin).
In data set [9] the target is T3, Delta-type opioid receptor. Nature of the data set: Binding affinity to DOP (unknown origin).
Data set [10] is described as follows: Toxicity in icv dosed C57BL/6J mouse assessed as antinociceptive activity tolerance. It counts as organism-based. The settings on record: in vivo, icv_or_intrathecal.
Data set [11] relates to Mus musculus. Nature of the data set: Antinociceptive activity in po dosed C57BL/6J mouse assessed as tail withdrawal latency from warm water. Format: functional.
Data set [12] is described as follows: Half life in mouse liver microsomes. It counts as ADME, Microsome. (In general: Liver microsomes are vesicles of endoplasmic reticulum, rich in cytochrome P450 enzymes.)
Data set [13] has as its target T3, Delta-type opioid receptor. The data set is described as follows: Displacement of [3H]DPDPE from DOP (unknown origin) stably expressed in HEK293 cells by liquid scintillation counter analysis. Format: cell-based.
A short description of data set [14]: Stability in mouse brain homogenate assessed as half life. Format: ADME, tissue-based.
Data set [15] can be described thus: Stability in mouse serum assessed as half life. It counts as ADME, cell-free.
In data set [16] the target is T1, Mu-type opioid receptor. The data set is described as follows: Agonist activity at MOP (unknown origin) stably expressed in HEK293 cells assessed as forskolin stimulated cAMP accumulation incubated for 30 mins by radioactivity based scintillation counter analysis. Format: functional, cell-based.
Data set [17] addresses T1, Mu-type opioid receptor. The data set is described as follows: Agonist activity at MOP (unknown origin) stably expressed in HEK293 cells assessed as forskolin stimulated cAMP accumulation incubated for 30 mins by radioactivity based scintillation counter analysis relative to control. It counts as functional, cell-based. The settings on record: filed as agonist. (cAMP levels reflect the balance of adenylyl cyclase and phosphodiesterase activity.)

Data set [18] deals with T1, Mu-type opioid receptor. The data set is described as follows: Displacement of [3H]DAMGO from MOP (unknown origin) stably expressed in HEK293 cells by liquid scintillation counter analysis. Format: cell-based.
For data set [19], the system named is Mus musculus. The data set is described as follows: Antinociceptive activity in mouse administered icv. Format: functional.
In data set [20] the target is T2, Kappa-type opioid receptor. The data set is described as follows: Inhibition of KOP (unknown origin).
Data set [21] has as its target T3, Delta-type opioid receptor. Nature of the data set: Inhibition of DOP (unknown origin).
The subject of data set [22] is Rattus norvegicus. The data set is described as follows: Antinociceptive activity in Sprague-Dawley rat assessed as tail flick response in warm water administered icv. It counts as functional.
Data set [23] deals with T3, Delta-type opioid receptor. Nature of the data set: Displacement of [3H]DPDPE from human DOP expressed in CHO-K1 cell membrane incubated for 60 mins by Microscint-counting analysis. Format: cell membranes.
The target of data set [24] is T1, Mu-type opioid receptor. The data set is described as follows: Agonist activity at human MOP expressed in CHO-K1 cell membrane assessed as [35S]GTPgammaS binding. It counts as functional, cell membranes.
For data set [25], the target named is T1, Mu-type opioid receptor. The data set is described as follows: Displacement of [3H]DAMGO from human MOP expressed in CHO-K1 cell membrane incubated for 60 mins by Microscint-counting analysis. Format: cell membranes.
Data set [26] deals with T1, Mu-type opioid receptor. The data set is described as follows: Agonist activity at human MOP expressed in CHO-K1 cell membrane assessed as [35S]GTPgammaS binding relative to control. It counts as functional, cell membranes. The conditions noted are these: filed as agonist.

pEC50, pIC50, pKi: −log10 of the molar value. Square brackets hold non-standard residues; d marks the D form. Peptide text beside a SMILES is read from it.

As usually defined, the pKi is the Ki on a negative log10 scale, so that one unit is a factor of ten. What is called pIC50 is −log10 of the IC50, conventionally taken in molar units. What is called half-life is the time needed for the level to fall by half in the phase considered. What is called pEC50 is −log10 of the EC50, conventionally taken in molar units. A word on the Emax: it is the greatest response seen or fitted, relative to the assay's reference.

T3 sequence (P41143 whole entry): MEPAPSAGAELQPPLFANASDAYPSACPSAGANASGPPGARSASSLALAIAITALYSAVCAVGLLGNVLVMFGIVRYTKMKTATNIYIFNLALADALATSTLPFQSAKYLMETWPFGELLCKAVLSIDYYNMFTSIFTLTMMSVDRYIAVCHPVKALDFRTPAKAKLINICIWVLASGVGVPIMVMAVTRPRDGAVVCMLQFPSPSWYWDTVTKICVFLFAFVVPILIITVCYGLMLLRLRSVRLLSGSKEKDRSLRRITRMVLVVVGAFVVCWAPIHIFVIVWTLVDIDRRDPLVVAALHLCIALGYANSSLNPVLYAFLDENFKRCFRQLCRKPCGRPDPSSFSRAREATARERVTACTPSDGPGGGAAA
Sequence of Mu-type opioid receptor (Mus musculus, UniProt P42866) (P42866 whole entry): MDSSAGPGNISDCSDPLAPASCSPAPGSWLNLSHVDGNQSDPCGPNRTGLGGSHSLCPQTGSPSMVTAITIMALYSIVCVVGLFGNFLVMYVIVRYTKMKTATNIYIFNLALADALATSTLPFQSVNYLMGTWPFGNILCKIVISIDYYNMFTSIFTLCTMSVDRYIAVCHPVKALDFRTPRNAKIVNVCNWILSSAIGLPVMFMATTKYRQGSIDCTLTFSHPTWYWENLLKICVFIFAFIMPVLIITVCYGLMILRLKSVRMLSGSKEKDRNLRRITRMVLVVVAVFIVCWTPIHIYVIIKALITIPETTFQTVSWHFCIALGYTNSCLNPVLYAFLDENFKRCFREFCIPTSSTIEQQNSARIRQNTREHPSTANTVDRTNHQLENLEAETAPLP
T1 sequence (P35372 whole entry): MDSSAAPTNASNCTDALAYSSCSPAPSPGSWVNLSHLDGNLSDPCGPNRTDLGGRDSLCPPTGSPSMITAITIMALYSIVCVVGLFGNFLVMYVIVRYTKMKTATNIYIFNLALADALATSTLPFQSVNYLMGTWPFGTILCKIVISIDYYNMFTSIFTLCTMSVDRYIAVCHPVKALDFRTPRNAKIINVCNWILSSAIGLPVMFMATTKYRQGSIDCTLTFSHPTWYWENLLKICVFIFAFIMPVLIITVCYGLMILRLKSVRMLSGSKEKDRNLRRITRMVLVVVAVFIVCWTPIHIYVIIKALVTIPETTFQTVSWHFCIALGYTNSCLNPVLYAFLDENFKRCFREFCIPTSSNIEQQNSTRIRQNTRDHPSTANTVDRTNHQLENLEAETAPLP
Sequence of Mu-type opioid receptor (Cavia porcellus, UniProt P97266) (P97266 whole entry): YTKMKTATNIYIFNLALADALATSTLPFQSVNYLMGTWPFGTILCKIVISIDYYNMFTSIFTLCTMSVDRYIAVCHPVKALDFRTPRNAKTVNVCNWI
T2 sequence (P41145 whole entry): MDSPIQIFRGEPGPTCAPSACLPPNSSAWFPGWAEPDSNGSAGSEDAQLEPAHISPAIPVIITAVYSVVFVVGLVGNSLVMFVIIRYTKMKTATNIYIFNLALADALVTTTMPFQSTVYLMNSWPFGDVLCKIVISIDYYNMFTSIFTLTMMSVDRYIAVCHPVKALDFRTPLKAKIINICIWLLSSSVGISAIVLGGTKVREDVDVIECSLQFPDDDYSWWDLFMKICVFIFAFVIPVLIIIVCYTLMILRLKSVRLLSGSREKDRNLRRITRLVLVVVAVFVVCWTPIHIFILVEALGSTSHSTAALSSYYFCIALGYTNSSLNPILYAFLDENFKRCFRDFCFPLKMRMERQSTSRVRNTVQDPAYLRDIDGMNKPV

On to `C[C@@H]1NC(=O)[C@H](Cc2c[nH]c3ccccc23)NC(=O)[C@H](Cc2ccccc2)NC(=O)[C@H]2CCCN2C1=O`, for which the figures for the pKi in data set [1], in data set [2] and in data set [3] were 7.49, 8.10 and 5.06, respectively. In addition, the ED50 in [4] was found to be 1.49 nmol.

Take `C[C@@H]1NC(=O)[C@H](Cc2ccccc2)NC(=O)[C@H]2CCCN2C(=O)[C@H](Cc2ccccc2)NC1=O`: the results for the pKi in [1], in data set [2] and in data set [3] were 6.16, 5.81 and under 5.00, respectively. For the same compound, in [4], the ED50 was determined as 6.97 nmol.

In the case of `C[C@@H](NC(=O)[C@@H](N)Cc1ccc(O)cc1)C(=O)N[C@@H](Cc1ccccc1)C(=O)NCC(=O)O` (H-Y[dA]FG-OH), the values for the pIC50 in data set [5] and in [7] were 7.46 and 6.58, respectively. Moreover, in [6], the Activity worked out at 25%. Also, the pKi in data set [8] was 7.92; in [9], 5.74.

Turning to `O=C1N[C@H](Cc2ccccc2)C(=O)N2CCC[C@@H]2C(=O)N[C@H](Cc2ccccc2)C(=O)N[C@H]1Cc1c[nH]c2ccccc12`, the ED50 in [10] amounted to 5.19 nmol; in data set [4] it was 1 nmol; in data set [11], 4.12 mg/kg. Also, the half-life in data set [12] was at most 30 min.

For `O=C1N[C@H](Cc2c[nH]c3ccccc23)C(=O)N[C@H](Cc2ccccc2)C(=O)N2CCC[C@@H]2C(=O)N[C@H]1Cc1ccccc1`, the pKi in data set [1] and in data set [2] was under 4.00 in each case. Besides, the ED50 in data set [4] amounted to 2.39 nmol. Besides, the half-life in data set [12] was at most 30 min.

For `C=C(C(N)=O)[C@@H](NC(=O)[C@H](Cc1c[nH]c2ccccc12)NC(=O)[C@@H](C)N(C)C(=O)[C@@H](N)Cc1c(C)cc(O)cc1C)c1ccccc1`, the pKi in data set [13] is 7.43; in data set [18] it was 10.49. Moreover, the half-life in data set [14] and in data set [15] was at least 300 min throughout. Also, the pEC50 in [16] was 11.40. For the same compound, the Emax in data set [17] is 98.1%.

`N=C(N)NCCC[C@@H](NC(=O)[C@@H](N)Cc1ccc(O)cc1)C(=O)N[C@@H](Cc1ccccc1)C(=O)NCC(=O)N[C@@H](Cc1ccc(O)cc1)C(N)=O` showed a pIC50 in [5] of 6.80. Further, the ED50 in [19] was determined as 20.2 pmol.

Turning to `CC[C@@H]1CN2CCc3c([nH]c4cccc(OC)c34)[C@H]2C[C@@H]1/C(=C\OC)C(=O)OC`, the results for the pIC50 in [20] and in [21] were 5.00 and under 5.00, respectively. The compound also showed a pKi in data set [9] of under 5.00.

With `O=C1N[C@@H](Cc2ccccc2)C(=O)N2CCC[C@@H]2C(=O)N[C@H](Cc2ccccc2)C(=O)N[C@H]1Cc1c[nH]c2ccccc12`, the ED50 in data set [10] is 125 nmol; in data set [4] it was 20.4 nmol. Moreover, the half-life in data set [12] was at most 30 min.

`C[C@@H](NC(=O)[C@@H](N)Cc1ccc(O)cc1)C(=O)N[C@@H](Cc1ccccc1)C(=O)NCC(=O)N[C@@H](Cc1ccc(O)cc1)C(=O)N1CCC[C@H]1C(=O)N[C@@H](CO)C(N)=O`: the values for the negative logarithm of the IC50 (pIC50) in data set [5] and in [7] were under 5.40 and under 4.82, respectively.

As for `NC(=O)[C@@H]1CC(=O)NCCCC[C@@H](NC(=O)[C@@H](N)Cc2ccc(O)cc2)C(=O)N[C@@H](Cc2c[nH]c3ccccc23)C(=O)N[C@@H](Cc2ccccc2)C(=O)N1`, the ED50 in data set [22] worked out at 0.2 nmol. Moreover, the pKi in data set [23] is 7.08; in [25] it was 9.31. In data set [24], the pEC50 was 9.03. Moreover, the Emax in data set [26] stood at 100%.

Regarding `O=C1N[C@@H](Cc2ccccc2)C(=O)N2CCC[C@@H]2C(=O)N[C@@H](Cc2ccccc2)C(=O)N[C@H]1Cc1c[nH]c2ccccc12`, the ED50 in data set [10] worked out at 5.23 nmol; in [4] it was 1.74 nmol. The compound further displayed a half-life in [12] of 49 min.

As to `C[C@@H](NC(=O)[C@@H](N)Cc1ccc(O)cc1)C(=O)N[C@@H](Cc1ccccc1)C(=O)NCC(=O)N[C@@H](Cc1ccc(O)cc1)C(=O)N1CCC[C@H]1C(N)=O`, the pIC50 is 8.57 in [5] and 7.36 in data set [7]. The compound further came in with an Activity in data set [6] of 25%. Further, the results for the pKi in data set [8] and in data set [9] were 8.80 and 6.49, respectively.

In the case of `O=C1N[C@H](Cc2ccccc2)C(=O)N[C@H](Cc2c[nH]c3ccccc23)C(=O)N[C@@H](Cc2ccccc2)C(=O)N2CCC[C@H]12`, the ED50 in data set [10] worked out at 0.49 nmol; in [4] it was 0.56 nmol; in [11], 4.72 mg/kg. Also, in data set [12], the half-life was at most 30 min.
